The values below come from paper PMC7539012, “Hyperphosphorylated tau aggregation and cytotoxicity modulators screen identified prescription drugs linked to Alzheimer's disease and cognitive functions” (Scientific Reports, 2020).

This experiment concerns T1, 1N4R p-tau.
T1 construct: made in house; host or cells: E. coli (PIMAX system)
Description: p-tau aggregation modulator screen of 1280-compound library (ThS fluorescence net change over 16 h).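 Further: 30 µM compound with 6 µM p-tau over 16 h.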 Type of experiment: biochemical.

The mark [1] stands for this setting: p-tau aggregation modulator screen of 1280-compound library, ThS fluorescence net change.
The mark [2] stands for this setting: 1280-compound library screen, ThS fluorescence net change over 16 h.
Setting [3] is: library screen, ThS fluorescence net change over 16 h with p-tau.
[4] abbreviates: p-tau aggregation modulator screen of the compound library, ThS fluorescence net change.
[5] abbreviates: p-tau aggregation modulator screen of 1280-compound library, […].
The mark [6] stands for this setting: 1280-compound library screen, […].

SMILES strings stand for the structures. Counter-ions that a name gives are not always drawn. Like-named read-outs stand apart in the source and are kept apart here. Where a SMILES comes first, the peptide text is derived from it. [ ]: non-standard residue; d: D form. The star is where a group is joined. Sta = CC(C)C[C@H](N)[C@@H](O)CC(=O)O; Isovaleryl = CC(C)CC(=O)*

`CCOC(=O)NNc1nncc2ccccc12` [Todralazine hydrochloride] came in with a ThS net change under setting [1] of 334.
On to `[H]/N=C(\N/C(=N/[H])Nc1ccc(Cl)cc1)NC(C)C` [Proguanil hydrochloride], for which the ThS net change under setting [2] is recorded as 389.
On the same count and under the same terms, for `CCCOc1cc(N)ccc1C(=O)OCCN(CC)CC` [Propoxycaine hydrochloride] the value was 403.
Under setting [3], `Cc1cc(-c2ccccc2)nnc1NCCN1CCOCC1` [Minaprine dihydrochloride] registered a ThS net change of 294.
In turn, `CC[N+](C)(CC)CCOC(=O)C1c2ccccc2Oc2ccccc21` [Methantheline bromide] gave a ThS net change under setting [2] of 400.
With `CC(=O)Oc1ccc(C(c2ccc(OC(C)=O)cc2)c2ccccn2)cc1` [Bisacodyl], the ThS net change under setting [2] came out at 398.
Under setting [4], `CCOC(=O)N1CCC(=C2c3ccc(Cl)cc3CCc3cccnc32)CC1` [Loratadine] came in with a ThS net change of 450.
Turning to `CC[C@@]1([C@@H]2O[C@@H]([C@H]3O[C@@](O)(CO)[C@H](C)C[C@@H]3C)C[C@@H]2C)CC[C@H]([C@]2(C)CC[C@]3(C[C@H](O)[C@@H](C)[C@@H]([C@@H](C)[C@@H](OC)[C@H](C)C(=O)[O-])O3)O2)O1.[Na+]` [Monensin sodium salt], the ThS net change under setting [5] is 342.
Under setting [3], `COc1ccc(-c2cc(=O)c3c(O)cc(O[C@@H]4O[C@H](CO[C@@H]5O[C@@H](C)[C@H](O)[C@@H](O)[C@H]5O)[C@@H](O)[C@H](O)[C@H]4O)cc3o2)cc1O` [Diosmin] returned a ThS net change of 211.
`NS(=O)(=O)c1cc2c(cc1Cl)NC(C(Cl)Cl)NS2(=O)=O` (stereo not drawn) [Trichlormethiazide] had a ThS net change under setting [1] of 375.
Regarding `CC=CC(=O)N(CC)c1ccccc1C` (mixture of isomers) [Crotamiton], under setting [2], the ThS net change is recorded as 386.
Same read-out and setting: the same measure for `Nc1cc(C(Cl)=C(Cl)Cl)c(S(N)(=O)=O)cc1S(N)(=O)=O` [Clorsulon]: 393.
Take `CCN(C(C)=O)c1cccc(-c2ccnc3c(C#N)cnn23)c1` [Zaleplon]: the ThS net change under setting [5] worked out at 368.
As for `OCCN1C[C@H](O)[C@@H](O)[C@H](O)[C@H]1CO` [Miglitol], the ThS net change under setting [1] was 372.
For the compound `CN(C)CCOC(c1ccccc1)c1ccccc1` [Diphenhydramine hydrochloride], under setting [1], the ThS net change is recorded as 335.
With `CC(=O)OCC(CCn1cnc2cnc(N)nc21)COC(C)=O` [Famciclovir], the ThS net change under setting [4] is 459.
As for `Cc1cnc(C(=O)NCCc2ccc(S(=O)(=O)NC(=O)NC3CCCCC3)cc2)cn1` [Glipizide], the ThS net change under setting [1] was determined as 371.
`Nc1nc(Cl)nc2c1ncn2[C@H]1C[C@H](O)[C@@H](CO)O1` [Cladribine] yielded a ThS net change under setting [2] of 399.
`Cc1ccc(C(=O)c2ccc(CC(=O)O)n2C)cc1` [Tolmetin sodium salt dihydrate] registered a ThS net change under setting [1] of 364.
Under setting [4], `COCCCOc1ccnc(C[S+]([O-])c2nc3ccccc3[nH]2)c1C` (stereo not drawn) [Rabeprazole Sodium salt] showed a ThS net change of 420.
Still for that read-out and setting: the same measure for `COC(=O)[C@H](c1ccccc1Cl)N1CCc2sccc2C1` [Clopidogrel]: 499.
Regarding `CCCCCCC[N+](CC)(CC)CCCCc1ccc(Cl)cc1.Cc1ccc(S(=O)(=O)[O-])cc1` [Clofilium tosylate], the ThS net change under setting [3] came to 326.
For the compound `CC1CCc2cc(F)cc3c(=O)c(C(=O)O)cn1c23` (stereo not drawn) [Flumequine], the ThS net change under setting [3] worked out at 303.
On to `CCCN(CCC)CCc1cccc2c1CC(=O)N2` [Ropinirole HCl], for which the ThS net change under setting [2] came to 388.
In turn, `CCCCN(CCCC)CCCOC(=O)c1ccc(N)cc1` [Butacaine] showed a ThS net change under setting [1] of 367.
Regarding `Cc1onc(-c2ccccc2Cl)c1C(=O)N[C@@H]1C(=O)N2[C@@H]1SC(C)(C)[C@@H]2C(=O)[O-].[Na+]` [Cloxacillin sodium salt], the ThS net change under setting [2] is given as 380.
As for `Cc1c(O)cccc1C(=O)N[C@@H](CSc1ccccc1)[C@H](O)CN1C[C@H]2CCCC[C@H]2C[C@H]1C(=O)NC(C)(C)C` [Nelfinavir mesylate], under setting [4], the ThS net change is 563.
In the case of `C[C@]12CC[C@H]3C(=CCc4cc(O)ccc43)[C@@H]1CCC2=O` [Equilin], the ThS net change under setting [6] is reported as 389.
Same read-out and setting: for `CNC(C)(C)Cc1ccccc1.CNC(C)(C)Cc1ccccc1.O=S(=O)(O)O` [Mephentermine hemisulfate] the value was 380.
In turn, `O=[N+]([O-])O[C@@H]1CO[C@H]2[C@@H]1OC[C@@H]2O` [Isosorbide mononitrate] registered a ThS net change of 477.
The same measure, in the same setting: for `O=C(O)COCCN1CCN(C(c2ccccc2)c2ccc(Cl)cc2)CC1` (stereo not drawn) [Cetirizine dihydrochloride] the value was 373.
On to `CCOC(=O)OC(C)OC1=C(C(=O)Nc2ccccn2)N(C)S(=O)(=O)c2ccccc21` (stereo not drawn) [Ampiroxicam], for which the ThS net change under setting [4] is 493.
On to `CCCCC[C@H](O)/C=C/[C@@H]1[C@@H](C/C=C\CCCC(=O)O)[C@@H](O)C[C@H]1O` [Dinoprost trometamol], for which the ThS net change under setting [2] is recorded as 384.
`CC(C)(Oc1ccc(C2CC2(Cl)Cl)cc1)C(=O)O` (stereo not drawn) [Ciprofibrate] showed a ThS net change under setting [4] of 448.
Compound `CS(=O)(=O)OCCCCOS(C)(=O)=O` [Busulfan] displayed a ThS net change under setting [3] of 324.
On to `CC(=O)O[C@H]1C[C@@H]2CC[C@@H]3[C@H](CC[C@@]4(C)[C@H]3C[C@H]([N+]3(C)CCCCC3)[C@@H]4OC(C)=O)[C@@]2(C)C[C@@H]1N1CCCCC1` [Vecuronium bromide], for which the ThS net change under setting [6] worked out at 382.
Take `CCOC(=O)[C@H](CCc1ccccc1)N[C@@H](C)C(=O)N1Cc2ccccc2C[C@H]1C(=O)O` [Quinapril HCl]: the ThS net change under setting [4] is given as 417.
Consider `CS(=O)(=O)O.Cc1ccc2c(c1)c1c3n2CCNC3CCC1` (stereo not drawn) [Pirlindole mesylate], for which the ThS net change under setting [4] is listed as 461.
Compound `CNC(=C[N+](=O)[O-])NCCSCc1csc(CN(C)C)n1` [Nizatidine] gave a ThS net change under setting [1] of 334.
Take `CN(C)CCN(Cc1ccccc1)c1ccccn1` [Tripelennamine hydrochloride]: the ThS net change under setting [4] was 414.
The compound `Cc1cc(C(C)(C)C)cc(C)c1CC1=NCCN1` [Xylometazoline hydrochloride] came in with a ThS net change of 295.
On to `CN(C)CCOc1ccc(/C(=C(/CCCl)c2ccccc2)c2ccccc2)cc1` [Toremifene], for which the ThS net change under setting [2] stood at 406.
Same read-out and setting: for `CC(C)CC(=O)N[C@H](C(=O)N[C@H](C(=O)N[C@@H](CC(C)C)[C@@H](O)CC(=O)N[C@@H](C)C(=O)N[C@@H](CC(C)C)[C@@H](O)CC(=O)O)C(C)C)C(C)C` [Pepstatin A] (Isovaleryl-VV[Sta]A[Sta]-OH) the value was 389; for `O=C(NC(Cc1cc(=O)[nH]c2ccccc12)C(=O)O)c1ccc(Cl)cc1` (stereo not drawn) [Rebamipide], 378.
Under setting [4], `CCCCNc1c(C(=O)OCC)c(C)nc2c1cnn2CC.Cl` [Tracazolate hydrochloride] returned a ThS net change of 440.
Under setting [6], `S=C(NC1CCCCC1)N1CCC(c2cnc[nH]2)CC1` [Thioperamide maleate] yielded a ThS net change of 385.
Regarding `O=c1[nH]c2ccccc2n1CCCN1CCC(n2c(=O)[nH]c3cc(Cl)ccc32)CC1` [Domperidone], the ThS net change under setting [2] came to 392.
The compound `Cc1ccc(S(=O)(=O)NC(=O)NN2CCCCCC2)cc1` [Tolazamide] registered a ThS net change under setting [4] of 458.
Regarding `CCCCCCCCNC(C)C(O)c1ccc(SC(C)C)cc1` (stereo not drawn) [Suloctidil], under setting [1], the ThS net change stood at 370.
`CN(C)CCC=C1c2ccccc2CCc2ccccc21.Cl` [Amitryptiline hydrochloride] came in with a ThS net change under setting [1] of 362.
`Cc1cnc(C(=O)O)c[n+]1[O-]` [Acipimox]: under setting [1], the ThS net change stood at 369.
Compound `O.O=C(O)C(O)C(O)C(=O)O.O=C(c1ccc(F)cc1)C1CCN(CCn2c(=O)[nH]c3ccccc3c2=O)CC1` [Ketanserin tartrate hydrate] displayed a ThS net change under setting [5] of 354.
In turn, `CC(C)(C(=O)O)c1ccc(C(O)CCCN2CCC(C(O)(c3ccccc3)c3ccccc3)CC2)cc1` (stereo not drawn) [Fexofenadine HCl] yielded a ThS net change under setting [4] of 435.
For the compound `CCCCOc1ccc(OCCCN2CCOCC2)cc1` [Pramoxine hydrochloride], under setting [2], the ThS net change turned out to be 381.
Under setting [4], `NC(=O)OCC(O)COc1ccc(Cl)cc1` (stereo not drawn) [Chlorphensin carbamate] yielded a ThS net change of 516.
Turning to `Nc1nc(N)c2nc(-c3ccccc3)c(N)nc2n1` [Triamterene], under setting [1], the ThS net change is given as 354.
`Cl.O=C(O)/C=C/c1ccc(Cn2ccnc2)cc1` [Ozagrel hydrochloride] had a ThS net change under setting [2] of 389.
In turn, `CC[C@H]1OC(=O)[C@H](C)[C@@H](O[C@H]2C[C@@](C)(OC)[C@@H](O)[C@H](C)O2)[C@H](C)[C@@H](O[C@@H]2O[C@H](C)C[C@H](N(C)C)[C@H]2O)[C@](C)(O)C[C@@H](C)[C@@H]2N[C@@H](COCCOC)O[C@H]([C@H]2C)[C@]1(C)O` [Dirithromycin] registered a ThS net change under setting [4] of 418.
Under setting [3], `O=C1CN(/N=C/c2ccc(-c3ccc([N+](=O)[O-])cc3)o2)C([O-])=N1.[Na+]` [Dantrolene sodium salt] yielded a ThS net change of 286.
Compound `CC[N+](C)(C)Cc1ccccc1Br` [Bretylium tosylate] had a ThS net change under setting [4] of 431.
Compound `CNC(C)CCC=C(C)C.CNC(C)CCC=C(C)C.O=C(O)C(O)C(O)C(O)C(O)C(=O)O` (stereo not drawn) [Isometheptene mucate] came in with a ThS net change under setting [4] of 481.
Compound `Cl.Nc1c(Br)cc(Br)cc1CN[C@H]1CC[C@H](O)CC1` [Ambroxol hydrochloride] came in with a ThS net change under setting [1] of 364.
`CCCC1O[C@@H]2C[C@H]3[C@@H]4CCC5=CC(=O)C=C[C@]5(C)[C@H]4[C@@H](O)C[C@]3(C)[C@]2(C(=O)CO)O1` (stereo partly drawn) [Budesonide] registered a ThS net change under setting [2] of 389.
Turning to `CC(C(=O)O)c1ccc(N2Cc3ccccc3C2=O)cc1` (stereo not drawn) [Indoprofen], the ThS net change under setting [1] is 364.
Take `Clc1ccc(C(Cn2ccnc2)OCc2csc3c(Cl)cccc23)c(Cl)c1` (stereo not drawn) [Sertaconazole nitrate]: the ThS net change under setting [5] was found to be 344.
In the case of `Clc1ccc(C(c2ccccc2Cl)C(Cl)Cl)cc1` (stereo not drawn) [Mitotane], under setting [4], the ThS net change is 449.
